{"source": "ChEMBL document CHEMBL4619795", "about": "“Establishing the Structure-Activity Relationship of Daptomycin” (ACS Med Chem Lett, 2020)", "key": {"Staphylococcus aureus [1]": {"tested_on": "Staphylococcus aureus", "test": "Antibacterial activity against methicillin-resistant Staphylococcus aureus 14 assessed as bacterial growth inhibition in presence of 50 ug/ml calcium ions by CLSI protocol based broth microdilution method", "type": "functional"}, "Staphylococcus aureus [2]": {"tested_on": "Staphylococcus aureus", "test": "Antibacterial activity against methicillin-resistant Staphylococcus aureus 88 assessed as bacterial growth inhibition in presence of 50 ug/ml calcium ions by CLSI protocol based broth microdilution method", "type": "functional"}, "Staphylococcus aureus [3]": {"tested_on": "Staphylococcus aureus", "test": "Antibacterial activity against Staphylococcus aureus ATCC 29213 assessed as bacterial growth inhibition in presence of 50 ug/ml calcium ions by CLSI protocol based broth microdilution method", "type": "functional"}, "Lipid bilayer [4]": {"tested_on": "Lipid bilayer", "test": "Binding affinity to POPC large unilamellar vesicles assessed as change in ellipticity […] at 50 uM in presence of phosphatidylglycerol and Ca2+ ions by circular dichroism spectroscopy"}, "Enterococcus [5]": {"tested_on": "Enterococcus", "test": "Antibacterial activity against Enterococcus 60 assessed as bacterial growth inhibition in presence of 50 ug/ml calcium ions by CLSI protocol based broth microdilution method", "type": "functional"}, "Enterococcus faecalis [6]": {"tested_on": "Enterococcus faecalis", "test": "Antibacterial activity against Streptococcus faecalis assessed as bacterial growth inhibition in presence of 50 ug/ml calcium ions by CLSI protocol based broth microdilution method", "type": "functional"}, "Staphylococcus aureus [7]": {"tested_on": "Staphylococcus aureus", "test": "Antibacterial activity against methicillin-resistant Staphylococcus aureus 11 assessed as bacterial growth inhibition in presence of 50 ug/ml calcium ions by CLSI protocol based broth microdilution method", "type": "functional"}, "Enterococcus faecalis [8]": {"tested_on": "Enterococcus faecalis", "test": "Antibacterial activity against Enterococcus faecalis ATCC 29212 assessed as bacterial growth inhibition in presence of 50 ug/ml calcium ions by CLSI protocol based broth microdilution method", "type": "functional"}, "Enterococcus [9]": {"tested_on": "Enterococcus", "test": "Antibacterial activity against Enterococcus 6 assessed as bacterial growth inhibition in presence of 50 ug/ml calcium ions by CLSI protocol based broth microdilution method", "type": "functional"}, "Lipid bilayer [10]": {"tested_on": "Lipid bilayer", "test": "Binding affinity to POPC/POPG (1:1) large unilamellar vesicles assessed as change in ellipticity […] at 50 uM in presence of phosphatidylglycerol and Ca2+ ions by circular dichroism spectroscopy"}, "Staphylococcus aureus [11]": {"tested_on": "Staphylococcus aureus", "test": "Antibacterial activity against methicillin-resistant Staphylococcus aureus 86 assessed as bacterial growth inhibition in presence of 50 ug/ml calcium ions by CLSI protocol based broth microdilution method", "type": "functional"}, "Lipid bilayer [12]": {"tested_on": "Lipid bilayer", "test": "Binding affinity to POPC/POPG (1:1) large unilamellar vesicles assessed as conformational changes at 50 uM in presence of phosphatidylglycerol and Ca2+ ions by circular dichroism spectroscopy"}, "Lipid bilayer [13]": {"tested_on": "Lipid bilayer", "test": "Binding affinity to POPC/POPG (1:1) large unilamellar vesicles assessed as close proximity of tryptophan and kynurenine residues at 50 uM in presence of phosphatidylglycerol and Ca2+ ions by circular dichroism spectroscopy"}, "[14]": {"test": "Toxicity in Galleria mellonella larvae infected with Staphylococcus aureus ATCC 43300 assessed as larvae death at 50 mg/kg measured at 36 hrs post-infection", "type": "organism-based", "conditions": "in vivo"}, "Lipid bilayer [15]": {"tested_on": "Lipid bilayer", "test": "Binding affinity to POPC large unilamellar vesicles assessed as close proximity of tryptophan and kynurenine residues at 50 uM in presence of phosphatidylglycerol and Ca2+ ions by circular dichroism spectroscopy"}, "Lipid bilayer [16]": {"tested_on": "Lipid bilayer", "test": "Binding affinity to POPC large unilamellar vesicles assessed as conformational changes at 50 uM in presence of phosphatidylglycerol and Ca2+ ions by circular dichroism spectroscopy"}, "Staphylococcus aureus [17]": {"tested_on": "Staphylococcus aureus", "test": "Antibacterial activity against Staphylococcus aureus ATCC 43300 infected in Galleria mellonella larvae assessed as increase in larvae survival at 50 mg/kg measured up to 48 hrs post-infection", "type": "functional, organism-based"}, "Staphylococcus aureus [18]": {"tested_on": "Staphylococcus aureus", "test": "Bactericidal activity against Staphylococcus aureus 86 assessed as reduction in colony formation at 8 ug/ml measured at 24 hrs by time-killing assay", "type": "functional, organism-based"}, "Staphylococcus aureus [19]": {"tested_on": "Staphylococcus aureus", "test": "Antibacterial activity against Staphylococcus aureus ATCC 29213 assessed as decrease in mutation prevention concentration measured after 72 hrs", "type": "functional, organism-based"}}, "note": "Activity calls are given as the source filed them. No cut-off for these calls is given here.", "data": [{"smiles": "CCCCCCCCCC(=O)N[C@@H](Cc1c[nH]c2ccccc12)C(=O)N[C@@H](CC(N)=O)C(=O)N[C@@H](CC(=O)O)C(=O)N[C@@H]1C(=O)NCC(=O)N[C@@H](CCCN)C(=O)N[C@@H](CC(=O)O)C(=O)N[C@H](C)C(=O)N[C@@H](CCC(=O)O)C(=O)NCC(=O)N[C@H](CO)C(=O)N[C@@H]([C@@H](C)CC(=O)O)C(=O)N[C@@H](CC(=O)c2ccccc2N)C(=O)O[C@@H]1C", "values": [{"measurement": "MIC", "setting": "Staphylococcus aureus [1]", "result": "≥ 32", "unit": "µg/mL"}, {"measurement": "MIC", "setting": "Staphylococcus aureus [2]", "result": "≥ 32", "unit": "µg/mL"}, {"measurement": "MIC", "setting": "Staphylococcus aureus [3]", "result": "≥ 32", "unit": "µg/mL"}, {"measurement": "Activity", "setting": "Lipid bilayer [4]", "result": "Active"}, {"measurement": "MIC", "setting": "Enterococcus [5]", "result": "≥ 32", "unit": "µg/mL"}, {"measurement": "MIC", "setting": "Enterococcus faecalis [6]", "result": "≥ 32", "unit": "µg/mL"}, {"measurement": "MIC", "setting": "Staphylococcus aureus [7]", "result": "≥ 32", "unit": "µg/mL"}, {"measurement": "MIC", "setting": "Enterococcus faecalis [8]", "result": "≥ 32", "unit": "µg/mL"}, {"measurement": "MIC", "setting": "Enterococcus [9]", "result": "≥ 32", "unit": "µg/mL"}, {"measurement": "Activity", "setting": "Lipid bilayer [10]", "result": "Active"}, {"measurement": "MIC", "setting": "Staphylococcus aureus [11]", "result": "≥ 32", "unit": "µg/mL"}]}, {"smiles": "CCCCCCCCCC(=O)N[C@@H](Cc1c[nH]c2ccccc12)C(=O)N[C@H](CC(N)=O)C(=O)N[C@@H](CC(=O)O)C(=O)N[C@@H]1C(=O)NCC(=O)N[C@@H](CCCN)C(=O)N[C@@H](CC(=O)O)C(=O)N[C@H](C)C(=O)N[C@@H](CC(=O)O)C(=O)NCC(=O)N[C@H](CO)C(=O)N[C@@H]([C@H](C)CC(=O)O)C(=O)N[C@@H](CC(=O)c2ccccc2N)C(=O)O[C@@H]1C", "values": [{"measurement": "MIC", "setting": "Staphylococcus aureus [1]", "result": 0.5, "unit": "µg/mL"}, {"measurement": "MIC", "setting": "Staphylococcus aureus [2]", "result": 0.25, "unit": "µg/mL"}, {"measurement": "MIC", "setting": "Staphylococcus aureus [3]", "result": 0.25, "unit": "µg/mL"}, {"measurement": "MIC", "setting": "Enterococcus [5]", "result": 2, "unit": "µg/mL"}, {"measurement": "MIC", "setting": "Enterococcus faecalis [6]", "result": 4, "unit": "µg/mL"}, {"measurement": "Activity", "setting": "Lipid bilayer [12]", "result": "Active"}, {"measurement": "Activity", "setting": "Lipid bilayer [13]", "result": "Active"}, {"measurement": "Activity", "setting": "[14]", "result": "Toxic"}, {"measurement": "MIC", "setting": "Staphylococcus aureus [7]", "result": 0.5, "unit": "µg/mL"}, {"measurement": "Activity", "setting": "Lipid bilayer [15]", "result": "Active"}, {"measurement": "MIC", "setting": "Enterococcus faecalis [8]", "result": 4, "unit": "µg/mL"}, {"measurement": "MIC", "setting": "Enterococcus [9]", "result": 2, "unit": "µg/mL"}, {"measurement": "Activity", "setting": "Lipid bilayer [16]", "result": "Active"}, {"measurement": "MIC", "setting": "Staphylococcus aureus [11]", "result": 0.5, "unit": "µg/mL"}, {"measurement": "Activity", "setting": "Staphylococcus aureus [17]", "result": "inactive"}]}, {"smiles": "CCCCCCCCCC(=O)N[C@@H](Cc1c[nH]c2ccccc12)C(=O)N[C@@H](CC(N)=O)C(=O)N[C@@H](CC(=O)O)C(=O)N[C@@H]1C(=O)NCC(=O)N[C@@H](CCCN)C(=O)N[C@@H](CC(N)=O)C(=O)N[C@H](C)C(=O)N[C@@H](CC(N)=O)C(=O)NCC(=O)N[C@H](CO)C(=O)N[C@@H]([C@@H](C)CC(=O)O)C(=O)N[C@@H](CC(=O)c2ccccc2N)C(=O)O[C@@H]1C", "values": [{"measurement": "MIC", "setting": "Staphylococcus aureus [1]", "result": "≥ 32", "unit": "µg/mL"}, {"measurement": "MIC", "setting": "Staphylococcus aureus [2]", "result": "≥ 32", "unit": "µg/mL"}, {"measurement": "MIC", "setting": "Staphylococcus aureus [3]", "result": "≥ 32", "unit": "µg/mL"}, {"measurement": "Activity", "setting": "Lipid bilayer [4]", "result": "Active"}, {"measurement": "MIC", "setting": "Enterococcus [5]", "result": "≥ 32", "unit": "µg/mL"}, {"measurement": "MIC", "setting": "Enterococcus faecalis [6]", "result": "≥ 32", "unit": "µg/mL"}, {"measurement": "MIC", "setting": "Staphylococcus aureus [7]", "result": "≥ 32", "unit": "µg/mL"}, {"measurement": "MIC", "setting": "Enterococcus faecalis [8]", "result": "≥ 32", "unit": "µg/mL"}, {"measurement": "MIC", "setting": "Enterococcus [9]", "result": "≥ 32", "unit": "µg/mL"}, {"measurement": "Activity", "setting": "Lipid bilayer [10]", "result": "Active"}, {"measurement": "MIC", "setting": "Staphylococcus aureus [11]", "result": "≥ 32", "unit": "µg/mL"}]}, {"smiles": "CCCCCCCCCC(=O)N[C@@H](Cc1cn(C)c2ccccc12)C(=O)N[C@@H](CC(N)=O)C(=O)N[C@@H](CC(=O)O)C(=O)N[C@@H]1C(=O)NCC(=O)N[C@@H](CCCN)C(=O)N[C@@H](CC(=O)O)C(=O)N[C@H](C)C(=O)N[C@@H](CC(=O)O)C(=O)NCC(=O)N[C@H](CO)C(=O)N[C@@H]([C@@H](C)CC(=O)O)C(=O)N[C@@H](CC(=O)c2ccccc2N)C(=O)O[C@@H]1C", "values": [{"measurement": "Activity", "setting": "Staphylococcus aureus [18]", "result": "Active"}, {"measurement": "Activity", "setting": "Staphylococcus aureus [19]", "result": "Active"}]}, {"smiles": "CCCCCCCCCC(=O)N[C@@H](Cc1c[nH]c2ccccc12)C(=O)N[C@@H](CC(N)=O)C(=O)N[C@@H](CC(=O)O)C(=O)N[C@@H]1C(=O)NCC(=O)N[C@@H](CO)C(=O)N[C@@H](CC(=O)O)C(=O)N[C@H](C)C(=O)N[C@@H](CC(=O)O)C(=O)NCC(=O)N[C@H](CO)C(=O)N[C@@H]([C@@H](C)CC(=O)O)C(=O)N[C@@H](CC(=O)c2ccccc2N)C(=O)O[C@@H]1C", "values": [{"measurement": "MIC", "setting": "Staphylococcus aureus [1]", "result": 4, "unit": "µg/mL"}, {"measurement": "MIC", "setting": "Staphylococcus aureus [2]", "result": 1, "unit": "µg/mL"}, {"measurement": "MIC", "setting": "Staphylococcus aureus [3]", "result": 2, "unit": "µg/mL"}, {"measurement": "MIC", "setting": "Enterococcus [5]", "result": "≥ 32", "unit": "µg/mL"}, {"measurement": "MIC", "setting": "Enterococcus faecalis [6]", "result": 4, "unit": "µg/mL"}, {"measurement": "MIC", "setting": "Staphylococcus aureus [7]", "result": 4, "unit": "µg/mL"}, {"measurement": "MIC", "setting": "Enterococcus faecalis [8]", "result": "≥ 32", "unit": "µg/mL"}, {"measurement": "MIC", "setting": "Enterococcus [9]", "result": 32, "unit": "µg/mL"}, {"measurement": "MIC", "setting": "Staphylococcus aureus [11]", "result": 2, "unit": "µg/mL"}]}]}
